Experimental data taken from ChEMBL document CHEMBL2424570, “New synthetic approach to coumarino[4,3-b]pyridine systems and potential cytotoxic evaluation” (Med Chem Res, 2013).

Tests used:
Ehrlich [1] = experiment: Ratio of 5-fluorouracil IC50 to compound IC50 for mouse EAC cells; format: functional
Ehrlich [2] = experiment: Ratio of 5-fluorouracil IC25 to compound IC25 for mouse EAC cells; format: functional
[3] = Antitumor activity against mouse EAC cells by trypan blue exclusion assay; format: functional, cell-based, Ehrlich; conditions: for IC25 / IC50: Mus musculus, Ehrlich
Ehrlich [4] = experiment: Ratio of 5-fluorouracil IC100 to compound IC100 for mouse EAC cells; format: functional

Structure (SMILES) | Ratio IC50 (Ehrlich [1]) | Ratio (Ehrlich [2]) | IC100 [3] [µM] | IC25 [3] [nM] | IC50 [3] [nM] | Ratio (Ehrlich [4])
O=c1oc2ccccc2c2nc(/C=C/c3ccccc3)cc(-c3ccccc3)c12 | 3 | 3 | 0.27 | 60 | 130 | 3
Nc1c(C(c2ccc(Cl)cc2)c2c(N)c3ccccc3oc2=O)c(=O)oc2ccccc12 | 3 | 3 | 0.25 | 60 | 120 | 3
O=c1oc2ccccc2c2nc3c(c(-c4ccccc4)c12)CCC/C3=C\c1ccccc1 | 3 | 3 | 0.24 | 60 | 120 | 3
O=C1c2ccccc2-c2nc3c(c(-c4ccccc4)c21)c(=O)oc1ccccc13 | 3 | 3 | 0.27 | 60 | 130 | 3
O=c1oc2ccccc2c2nc(-c3ccccc3)cc(-c3ccc([N+](=O)[O-])cc3)c12 | 3 | 3 | 0.25 | 60 | 120 | 3
O=c1[nH]cc(F)c(=O)[nH]1 [FLUOROURACIL] | – | – | 0.77 | 190 | 380 | –
